Data taken from patent publication US5637731A (priority 1996, dated 1997).
Values joined by “and” are separate entries in the source; they are usually repeats but may differ in a detail not shown here. Equal values may be shown once. Where a name gives a salt, the structure may show the parent alone. Read-outs that look alike come from different tables or passages of the source.

Assays:
[1] = tested on: peripheral acetylcholine-like effects; assay: Side effect profile: in vivo overt effects (salivation, tremor, diarrhea) after oral administration; parameters: species or system rat
Text: The use of the radioligand binding assays (^3 H-QNB and ^3 H-CD) to characterize the hydroxylated oxotremorine derivatives provides a useful first approximation for,the evaluation of the muscarinic agonist-like profile of a test compound. However, in using a prodrug methodology, intrinsic activity will not be observed until in vivo hydrolysis or metabolism to the active compound occurs. Therefore, radioligand binding data, performed on the carbonyl derivatives, will not provide leading information. As a result, the observed overt effects after oral administration to rats of the test carbonyl derivative, relative to its corresponding hydroxylated oxotremorine compound, became the primary in vivo pharmacological measure. These in vivo overt effects are attributed to the peripheral acetylcholine-like effects of the compound, such as salivation, tremor and diarrhea. The in vivo overt effects also providing dosing information for the behavioral tests of cognitive improvement.

[2] = biological target: muscarinic cholinergic receptor; assay: [^3 H]-Cis-methyldioxolane (^3 H-CD) Binding Assay (High Affinity); conditions: rat cerebral cortex, ^3 H-CD 1.0 nM, 25° C., 120 minutes, pH 7.4; high affinity agonist binding
[3] = biological target: muscarinic cholinergic receptor; assay type: binding, rat; conditions: pH 7.4
[4] = rat cerebral cortex, ^3 H-QNB 0.25 nM, 25° C., 120 minutes

In the case of `CCOC(=O)O[C@@H]1CCN(CC#CCN(C)C)C1=O` [(R)-1-[4-(Dimethylamino)-2-butynyl]-2-oxo-3-pyrrolidinyl carbonic acid ethyl ester], the “Side Effect Profile minimum effective dose (MED)” value ([1]; (rat) po) is reported as 127 μ mol/kg and 254 μ mol/kg and the “Side Effect Profile minimum effective dose (MED)” value ([1]; (rat) po; listed as R)-1-[4-(Dimethylamino)-2-butynyl]-2-oxo-3-pyrrolidinyl carbonic acid ethyl este) is reported as 258 μ mol/kg.

For `CCCCOC(=O)O[C@@H]1CCN(CC#CCN2CCCC2)C1=O` [(R)-2-Oxo-1-[4-(1-pyrrolidinyl)-2-butynyl]-3-pyrrolidinyl carbonic acid butyl ester], the “Side Effect Profile minimum effective dose (MED)” value ([1]; (rat) po) was 14 μ mol/kg.

`CCNC(=O)O[C@@H]1CCN(CC#CCN(C)C)C1=O` [(R)-Ethylcarbamic acid 1-[4-(dimethylamino)-2-butynyl]-2-oxo-3-pyrrolidinyl ester] was tested, and the “Side Effect Profile minimum effective dose (MED)” value ([1]; (rat) po) was greater than 510 μ mol/kg.

`CCNC(=O)O[C@@H]1CCN(CC#CCN2CCCC2)C1=O` [(R)-Ethylcarbamic acid 2-oxo-1-[4-(1-pyrrolidinyl)-2-butynyl]-3-pyrrolidinyl ester] was tested, and the “Side Effect Profile minimum effective dose (MED)” value ([1]; (rat) po) was 28 μ mol/kg.

`CCCCCCOC(=O)O[C@@H]1CCN(CC#CCN2CCCC2)C1=O` [(R)-2-Oxo-1-[4-(1-pyrrolidinyl)-2-butynyl]-3-pyrrolidinyl carbonic acid hexyl ester] was tested, and the “Side Effect Profile minimum effective dose (MED)” value ([1]; (rat) po) was 7 μ mol/kg.

With `CCCCCCNC(=O)O[C@@H]1CCN(CC#CCN2CCCC2)C1=O` [(R)-Hexylcarbamic acid 2-oxo-1-[4-(1-pyrrolidinyl)-2-butynyl]-3-pyrrolidinyl ester] the “Side Effect Profile minimum effective dose (MED)” value ([1]; (rat) po) was greater than 450 μ mol/kg.

For `CCCCCCNC(=O)O[C@H]1CCN(CC#CCN2CCCC2)C1=O` [(S)-Hexylcarbamic acid 2-oxo-1-[4-(1-pyrrolidinyl)-2-butynyl]-3-pyrrolidinyl ester], the “Side Effect Profile minimum effective dose (MED)” value ([1]; (rat) po) was greater than 450 μ mol/kg.

In the case of `CCCCCCCC(=O)O[C@@H]1CCN(CC#CCN2CCCC2)C1=O` [(R)-Octanoic acid 2-oxo-1-[4-(1-pyrrolidinyl)-2-butynyl]-3-pyrrolidinyl ester], the “Side Effect Profile minimum effective dose (MED)” value ([1]; (rat) po) is reported as 14 μ mol/kg.

For `CCCCCCCCOC(=O)O[C@H]1CCN(CC#CCN2CCCC2)C1=O` [(S)-2-Oxo-1-[4-(1-pyrrolidinyl)-2-butynyl]-3-pyrrolidinyl carbonic acid octyl ester], the “Side Effect Profile minimum effective dose (MED)” value ([1]; (rat) po) was 28 μ mol/kg.

For `CCCCCCCCNC(=O)O[C@H]1CCN(CC#CCN(C)C)C1=O` [(S)-Octylcarbamic acid 1-[4-(dimethylamino)-2-butynyl]-2-oxo-3-pyrrolidinyl ester], the “Side Effect Profile minimum effective dose (MED)” value ([1]; (rat) po) was greater than 520 μ mol/kg.

`CCCCNC(=O)O[C@H]1CCN(CC#CCN2CCCC2)C1=O` [(S)-Butylcarbamic acid 1-2-oxo-[4-(1-pyrrolidinyl)-2-butynyl]-3-pyrrolidinyl ester] was tested, and the “Side Effect Profile minimum effective dose (MED)” value ([1]; (rat) po) was 225 μ mol/kg.

`CCCCCC(=O)O[C@@H]1CCN(CC#CCN(C)C)C1=O` [(R)-Hexanoic acid 1-[4-(dimethylamino)-2-butynyl]-2-oxo-3-pyrrolidinyl ester] was tested, and the “Side Effect Profile minimum effective dose (MED)” value ([1]; (rat) po) was 255 μ mol/kg.

`CCCCCC(=O)O[C@H]1CCN(CC#CCN2CCCC2)C1=O` [(S)-Hexanoic acid 2-oxo-1-[4-(1-pyrrolidinyl)-2-butynyl]-3-pyrrolidinyl ester] was tested, and the “Side Effect Profile minimum effective dose (MED)” value ([1]; (rat) po) was 1.8 μ mol/kg.

For `CCCCCC(=O)O[C@@H]1CCN(CC#CCN2CCCC2)C1=O` [(R)-Hexanoic acid 2-oxo-1-[4-(1-pyrrolidinyl)-2-butynyl]-3-pyrrolidinyl ester], the “Side Effect Profile minimum effective dose (MED)” value ([1]; (rat) po) was 7.0 μ mol/kg.

For `CCNC(=O)O[C@H]1CCN(CC#CCN2CCCC2)C1=O` [(S)-Ethylcarbamic acid 2-oxo-1-[4-(1-pyrrolidinyl)-2-butynyl]-3-pyrrolidinyl ester], the “Side Effect Profile minimum effective dose (MED)” value ([1]; (rat) po) was greater than 490 μ mol/kg.

`CCCCCC(=O)O[C@H]1CCN(CC#CCN(C)C)C1=O` [(S)-Hexanoic acid 1-[4-(dimethylamino)-2-butynyl]-2-oxo-3-pyrrolidinyl ester] was tested, and the “Side Effect Profile minimum effective dose (MED)” value ([1]; (rat) po) was 5.9 μ mol/kg.

In the case of `CCCCCCCC(=O)O[C@@H]1CCN(CC#CCN(C)C)C1=O` [(R)-Octanoic acid 1-[4-(dimethylamino)-2-butynyl]-2-oxo-3-pyrrolidinyl ester], the “Side Effect Profile minimum effective dose (MED)” value ([1]; (rat) po) is reported as 508 μ mol/kg.

With `CCCCCCCC(=O)O[C@H]1CCN(CC#CCN2CCCC2)C1=O` the “Side Effect Profile minimum effective dose (MED)” value ([1]; (rat) po) was 14 μ mol/kg.

`CCCCCCCCCC(=O)O[C@H]1CCN(CC#CCN2CCCC2)C1=O` [(S)-Decanoic acid 2-oxo-1-[4-(1-pyrrolidinyl)-2-butynyl]-3-pyrrolidinyl ester] was tested, and the “Side Effect Profile minimum effective dose (MED)” value ([1]; (rat) po) was 14 μ mol/kg.

With `CCCCNC(=O)O[C@@H]1CCN(CC#CCN(C)C)C1=O` [(R)-Butylcarbamic acid 1-[4-(dimethylamino)-2-butynyl]-2-oxo-3-pyrrolidinyl ester] the “Side Effect Profile minimum effective dose (MED)” value ([1]; (rat) po) was greater than 340 μ mol/kg.

For `CCCC(=O)O[C@@H]1CCN(CC#CCN2CCCC2)C1=O` [(R)-Butanoic acid 2-oxo-1-[4-(1-pyrrolidinyl)-2-butynyl]-3-pyrrolidinyl ester], the “Side Effect Profile minimum effective dose (MED)” value ([1]; (rat) po) was 7.2 μ mol/kg.

In the case of `CCNC(=O)O[C@H]1CCN(CC#CCN(C)C)C1=O` [(S)-Ethylcarbamic acid 1-[4-(dimethylamino)-2-butynyl]-2-oxo-3-pyrrolidinyl ester], the “Side Effect Profile minimum effective dose (MED)” value ([1]; (rat) po) is reported as greater than 510 μ mol/kg.

`CCOC(=O)O[C@H]1CCN(CC#CCN(C)C)C1=O` [(S)-1-[4-(Dimethylamino)-2-butynyl]-2-oxo-3-pyrrolidinyl carbonic acid ethyl ester] was tested, and the “Side Effect Profile minimum effective dose (MED)” value ([1]; (rat) po) was 2.2 μ mol/kg.

With `CCCCCCCC(=O)O[C@H]1CCN(CC#CCN(C)C)C1=O` [(S)-Octanoic acid 1-[4-(dimethylamino)-2-butynyl]-2-oxo-3-pyrrolidinyl ester] the “Side Effect Profile minimum effective dose (MED)” value ([1]; (rat) po) was 8.0 μ mol/kg.

With `CCCCCCNC(=O)O[C@H]1CCN(CC#CCN(C)C)C1=O` [(S)-Hexylcarbamic acid 1-[4-(dimethylamino)-2-butynyl]-2-oxo-3-pyrrolidinyl ester] the “Side Effect Profile minimum effective dose (MED)” value ([1]; (rat) po) was greater than 510 μ mol/kg.

`CCCCNC(=O)O[C@@H]1CCN(CC#CCN2CCCC2)C1=O` [(R)-Butylcarbamic acid 2-oxo-1-[4-(1-pyrrolidinyl)-2-butynyl]-3-pyrrolidinyl ester] was tested, and the “Side Effect Profile minimum effective dose (MED)” value ([1]; (rat) po) was greater than 243 μ mol/kg.

`CC(=O)O[C@H]1CCN(CC#CCN2CCC[C@@H]2CO[Si](C)(C)C(C)(C)C)C1=O` [[S-(R*,S*)]-3-(Acetyloxy)-1-[4-(2-[[[(1,1-dimethylethyl)dimethylsilyl]oxy]methyl]-1-pyrrolidinyl]-2-butynyl]-2-pyrrolidinone] was tested, and the Ki [2] was 4.2 µM and the Ki [3, 4] was greater than 100 µM.

`CN(C)C(=O)O[C@H]1CCN(CC#CCN2CCCC2)C1=O` [(S)-Dimethylcarbamic acid 2-oxo-1-[4-(1-pyrrolidinyl)-2-butynyl]-3-pyrrolidinyl ester] showed a Ki [2] of 9.56 µM and a Ki ([3]; read-out: ^3 H-QNB Ki) of 40.3 µM.

With `CC(C)C(=O)O[C@H]1CCN(CC#CC[N+](C)(C)C)C1=O` [(S)-N,N, N-Trimethyl-4-[3-(2-methyl-1-oxopropoxy)-2-oxo-1-pyrrolidinyl]-2-butyn-1-aminium iodide] the Ki [2] was 6.96 µM and the Ki [3, 4] was 64.3 µM.

Work on `O=C1C(O)CCN1CC#CCn1ccnc1` (stereo not shown) [1-[4-(1H-Imidazol-1-yl)-2-butynyl]-3-hydroxy-2-pyrrolidinone] yielded a Ki [2] of 2 µM and a Ki [3, 4] greater than 100 µM.

`C[N+](C)(C)CC#CCN1CC[C@H](N=[N+]=[N-])C1=O` [(S)-4-(3-Azido-2-oxo-1-pyrrolidinyl)-N,N,N-trimethyl-2-butyn-1-aminium iodide] gave a Ki [2] of 0.045 µM and a Ki [3, 4] of 1.6 µM.

For `CC(C)(C)[Si](C)(C)OC[C@@H]1CCCN1CC#CCN1CC[C@@H](O)C1=O` [[R-(R*,S*)]-1-[4-[2-[[[(1,1-dimethylethyl)dimethylsilyl]oxy]methyl]-1-pyrrolidinyl]-2-butynyl]-3-hydroxy-2-pyrrolidone], the Ki [2] was 0.47 µM and the Ki [3, 4] was 0.5 µM.

`CN(CC#CCN1CC[C@@H](O)C1=O)CCO` [(R)-3-Hydroxy-1-[4-[(2-hydroxyethyl)methylamino]-2-butynyl]-2-pyrrolidinone] was tested, and the Ki [2] was 1.8 µM and the Ki [3, 4] was greater than 100 µM.

`CC(C)(C)[Si](C)(C)OC[C@@H]1CCCN1CC#CCNC(=O)C(F)(F)F` [(S)-N-[4-[2-[[[(1,1-Dimethylethyl]-dimethylsilyl]oxy]-methyl]-1-pyrrolidinyl]-2-butynyl]-2,2,2-trifluoroacetamide] showed a Ki [2] of 41.4 µM and a Ki [3, 4] greater than 100 µM.

In the case of `N[C@@H]1CCN(CC#CCN2CCCC2)C1=O` [(R)-3-Amino-1-[4-(1-pyrrolidinyl)-2-butynyl]-2-pyrrolidinone dihydrochloride], the Ki [2] is reported as 0.35 µM and the Ki [3, 4] is reported as 6.1 µM.

`CS[C@H]1CCN(CC#CCN2CCCC2)C1=O` [(S)-3-(Methylthio)-1-[4-(1-pyrrolidinyl)-2-butynyl]-2-pyrrolidinone] gave a Ki [2] of 1.04 µM and a Ki [3, 4] of 53 µM.

For `CS[C@@H]1CCN(CC#CCN(C)C)C1=O` [(R)-1-[4-(Dimethylamino)-2-butynyl]-3-(methylthio)-2-pyrrolidinone], the Ki [2] was 6.1 µM and the Ki [3, 4] was 108 µM.

Work on `CCCCCCCCCC(=O)O[C@H]1CCN(CC#CCN(C)C)C1=O` [(S)-Decanoic acid 1-[4-(dimethylamino)2-butynyl]-2-oxo-3-pyrrolidinyl ester] yielded a Ki [2] of 0.023 µM and a Ki [3, 4] of 0.6 µM.

For `CCN(CC)CC#CCN1CCC(C)C1=O` (racemic) [Racemic 1-[4-(1-Diethylamino)-2-butynyl]-3-methyl-2-pyrrolidinone], the Ki [2] was 5.1 µM and the Ki [3, 4] was 6 µM.

In the case of `O=C1[C@@H](O)CCN1CC#CCN1CCC[C@@H]1CO` [[S-(R*,S*)]-3-Hydroxy-1-[4-[2-(hydroxymethyl)-1-pyrrolidinyl]-2-butynyl]-2-pyrrolidinone], the Ki [2] is reported as 2.6 µM and the Ki [3, 4] is reported as greater than 100 µM.
